Test results from patent US11530193B2, “Kinase inhibitors” (The University of Manchester, priority 2018, dated 2022).
Counter-ions that a name gives are not always drawn. Like-named read-outs stand apart in the source and are kept apart here. Values belong to the compound of their own block, whether it stands above or below them.

Legend:
[1] = molecular target: CAMK1D (Homo sapiens (Human), UniProt Q8IU85); assay: Tm-Shift assay (thermal melting, SYPRO Orange); type: binding; conditions: for ΔTm at 10 µM: read-out: CAMK1d Tm-Shift; for CAMK1d Tm-Shift: compound 10 μM, protein 2 μM, ΔTm obs vs protein without ligand, triplicate
Sequence of CAMK1D (Q8IU85 1-333): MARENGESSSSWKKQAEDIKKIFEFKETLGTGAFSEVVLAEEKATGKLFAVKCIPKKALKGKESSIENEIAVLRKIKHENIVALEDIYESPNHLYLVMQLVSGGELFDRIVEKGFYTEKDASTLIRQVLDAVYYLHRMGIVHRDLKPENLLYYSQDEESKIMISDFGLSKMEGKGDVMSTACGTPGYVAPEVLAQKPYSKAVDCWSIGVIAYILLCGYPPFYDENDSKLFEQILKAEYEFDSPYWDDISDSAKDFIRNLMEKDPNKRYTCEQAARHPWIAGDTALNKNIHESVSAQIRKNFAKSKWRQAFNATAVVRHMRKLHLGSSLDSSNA

[2] = molecular target: SYK (Homo sapiens (Human), UniProt P43405); assay: Tm-Shift assay (thermal melting, SYPRO Orange); type: binding;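 note: recombinant His-tagged protein made in Sf9 insect cells by baculovirus, in HEPES NaCl buffer, heated stepwise with fluorescence recorded at every temperature step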
[3] = compound 10 μM, protein 2 μM, ΔTm obs vs protein without ligand, triplicate

Compound: Cc1ccc(Nc2nc(N3CCC[C@H](N)C3)ncc2C(N)=O)cc1S(=O)(=O)N1CCCCC1 [Example 6, (S)-2-(3-aminopiperidin-1-yl)-4-((4-methyl-3-(piperidin-1-ylsulfonyl)phenyl)amino) pyrimidine-5-carboxamide]
CAMK1d Tm-Shift [1]: 9.9 °C | SYK Tm-Shift [2]: 3.3 °C

Compound: CS(=O)(=O)c1cc(Nc2nc(N3CCC[C@H](N)C3)ncc2C(N)=O)cc(S(C)(=O)=O)c1.Cl [Example 9, (S)-2-(3-aminopiperidin-1-yl)-4-((3,5-bis(methylsulfonyl)phenyl)amino)pyrimidine-5-carboxamide hydrochloride]
ΔTm at 10 µM [1]: 10.1 °C | SYK Tm-Shift [2]: 0.2 °C

Compound: CC(C)(C)c1cc(Nc2nc(N3C[C@H](N)C[C@H](N)C3)ncc2C(N)=O)cc(C(C)(C)C)c1.Cl.Cl [Example 11, 4-((3,5-di-tert-butylphenyl)amino)-2-((3S,5R)-3,5-diaminopiperidin-1-yl)pyrimidine-5-carboxamide dihydrochloride]
SYK Tm-Shift [2]: −0.5 °C

Compound: Cc1cccc(C)c1-c1cc(Nc2nc(N3CCC[C@H](N)C3)ncc2C(N)=O)cc(C(=O)N2CCOCC2)c1 [Example 20, (S)-2-(3-aminopiperidin-1-yl)-4-((2′,6′-dimethyl-5-(morpholine-4-carbonyl)-[1,1′-biphenyl]-3-yl)amino)pyrimidine-5-carboxamide]
SYK Tm-Shift [2, 3]: 0.3 °C

Compound: NC(=O)c1cnc(N2CCC[C@H](N)C2)nc1Nc1cc(C(=O)N2CCOCC2)cc(-c2ccccc2)c1 [Example 21, (S)-2-(3-aminopiperidin-1-yl)-4-((5-(morpholine-4-carbonyl)-[1,1′-biphenyl]-3-yl)amino)pyrimidine-5-carboxamide]
SYK Tm-Shift [2, 3]: 0.3 °C

Compound: CN(C)CCN(C)C(=O)c1cccc(Nc2nc(N3CCC[C@H](N)C3)ncc2C(N)=O)c1 [Example 25, (S)-2-(3-aminopiperidin-1-yl)-4-((3-((2-(dimethylamino)ethyl)(methyl)carbamoyl)phenyl)amino) pyrimidine-5-carboxamide]
CAMK1d Tm-Shift [1]: 8.1 °C | SYK Tm-Shift [2]: 0.7 °C

Compound: CN(C)C(=O)c1cc(Nc2nc(N3CCC[C@H](N)C3)ncc2C(N)=O)cc(C(C)(C)C)c1 [Example 27, (S)-2-(3-aminopiperidin-1-yl)-4-((3-(tert-butyl)-5-(dimethylcarbamoyl)phenyl)amino) pyrimidine-5-carboxamide]
CAMK1d Tm-Shift [1]: 12.5 °C | SYK Tm-Shift [2]: 0.4 °C

Compound: C[C@@H]1COC[C@H](C)N1C(=O)c1cccc(Nc2nc(N3CCC[C@H](N)C3)ncc2C(N)=O)c1.Cl [Example 33, 2-((S)-3-aminopiperidin-1-yl)-4-((3-((3S,5R)-3,5-dimethylmorpholine-4-carbonyl)phenyl)amino)pyrimidine-5-carboxamide hydrochloride]
SYK Tm-Shift [2]: 0.5 °C

Compound: COc1ccc2c(c1)CN(C(=O)c1cccc(Nc3nc(N4CCC[C@H](N)C4)ncc3C(N)=O)c1)C2 [Example 35, (S)-2-(3-aminopiperidin-1-yl)-4-((3-(5-methoxyisoindoline-2-carbonyl)phenyl)amino)pyrimidine-5-carboxamide]
SYK Tm-Shift [2, 3]: 4.3 °C

Compound: COC[C@H]1CCCN1C(=O)c1cccc(Nc2nc(N3CCC[C@H](N)C3)ncc2C(N)=O)c1.Cl [Example 36, 2-((S)-3-aminopiperidin-1-yl)-4-((3-((R)-2-(methoxymethyl)pyrrolidine-1-carbonyl)phenyl)amino)pyrimidine-5-carboxamide hydrochloride]
SYK Tm-Shift [2]: 1.4 °C

Compound: CC(C)(O)C1CN(C(=O)c2cccc(Nc3nc(N4CCC[C@H](N)C4)ncc3C(N)=O)c2)C1.Cl [Example 37, (S)-2-(3-aminopiperidin-1-yl)-4-((3-(3-(2-hydroxypropan-2-yl)azetidine-1-carbonyl)phenyl)amino)pyrimidine-5-carboxamide hydrochloride]
SYK Tm-Shift [2]: 5.0 °C

Compound: CN1CCN(C(=O)c2cccc(Nc3nc(N4CCC[C@H](N)C4)ncc3C(N)=O)c2)CC1=O.Cl [Example 38, (S)-2-(3-aminopiperidin-1-yl)-4-((3-(4-methyl-3-oxopiperazine-1-carbonyl)phenyl)amino)pyrimidine-5-carboxamide hydrochloride]
SYK Tm-Shift [2]: 3.4 °C

Compound: NC(=O)c1cnc(N2CCC[C@H](N)C2)nc1Nc1cc(C(=O)N2CCOCC2)cc(C(F)(F)F)c1 [Example 43, (S)-2-(3-aminopiperidin-1-yl)-4-((3-(morpholine-4-carbonyl)-5-(trifluoromethyl)phenyl)amino)pyrimidine-5-carboxamide]
SYK Tm-Shift [2, 3]: 1.2 °C

Compound: CC(C)(C#N)c1cc(Nc2nc(N3CCC[C@H](N)C3)ncc2C(N)=O)cc(C(=O)N2CCOCC2)c1 [Example 48, (S)-2-(3-aminopiperidin-1-yl)-4-((3-(2-cyanopropane-2-yl)-5-(morpholine-4-carbonyl)phenyl)amino)pyrimidine-5-carboxamide]
SYK Tm-Shift [2, 3]: 0.5 °C

Compound: NC(=O)c1cnc(N2CCC[C@H](N)C2)nc1Nc1cc(C2CC2)cc(C2CC2)c1 [Example 53, (S)-2-(3-aminopiperidin-1-yl)-4-((3,5-dicyclopropylphenyl)amino)pyrimidine-5-carboxamide]
SYK Tm-Shift [2, 3]: 8.2 °C

Compound: COC1(c2cc(Nc3nc(N4CCC[C@H](N)C4)ncc3C(N)=O)cc(C(F)(F)F)c2)CC1 [Example 122, (S)-2-(3-aminopiperidin-1-yl)-4-((3-(1-methoxycyclopropyl)-5-(trifluoromethyl)phenyl)amino)pyrimidine-5-carboxamide]
ΔTm at 10 µM [1]: -0.8 °C

More lines, now with the values ahead:

ΔTm at 10 µM [1]: 10.6 °C
Compound: CC(C)(C)c1cccc(Nc2nc(N3CCCC(N)C3)ncc2C(N)=O)c1 (stereo not drawn) [Example 1, 2-(3-aminopiperidin-1-yl)-4-((3-(tert-butyl)phenyl)amino)pyrimidine-5-carboxamide]

ΔTm at 10 µM [1]: 14 °C
Compound: CC(C)(C)c1cc(Nc2nc(N3CCCC(N)C3)ncc2C(N)=O)cc(C(C)(C)C)c1 (stereo not drawn) [Example 2, 2-(3-aminopiperidin-1-yl)-4-((3,5-di-tert-butylphenyl)amino)pyrimidine-5-carboxamide]

ΔTm at 10 µM [1]: 13.4 °C
Compound: CC(C)(C)c1cc(Nc2nc(N3CCC[C@H](N)C3)ncc2C(N)=O)cc(C(C)(C)C)c1 [Example 3, (S)-2-(3-aminopiperidin-1-yl)-4-((3,5-di-tert-butylphenyl)amino)pyrimidine-5-carboxamide]

ΔTm at 10 µM [1]: 9 °C
Compound: CC(C)(C#N)c1cccc(Nc2nc(N3CCC[C@H](N)C3)ncc2C(N)=O)c1 [Example 4, (S)-2-(3-aminopiperidin-1-yl)-4-((3-(2-cyanopropan-2-yl)phenyl)amino)pyrimidine-5-carboxamide]

ΔTm at 10 µM [1]: 10.6 °C
Compound: CC(C)(C)c1cc(Nc2nc(N3CCC[C@@H](N)C3)ncc2C(N)=O)cc(C(C)(C)C)c1 [Example 7, (R)-2-(3-aminopiperidin-1-yl)-4-((3,5-di-tert-butylphenyl)amino)pyrimidine-5-carboxamide hydrochloride]

SYK Tm-Shift [2, 3]: 3.2 °C
Compound: CC(C)(C)c1cc(Nc2nc(N3CCC[C@H](N)C3)ncc2C(N)=O)ccn1 [Example 8, (S)-2-(3-aminopiperidin-1-yl)-4-((2-(tert-butyl)pyridin-4-yl)amino)pyrimidine-5-carboxamide]

SYK Tm-Shift [2, 3]: 6.5 °C
Compound: Cc1ccccc1-c1cccc(Nc2nc(N3CCC[C@H](N)C3)ncc2C(N)=O)c1 [Example 10, (S)-2-(3-aminopiperidin-1-yl)-4-((2′-methyl-[1,1′-biphenyl]-3-yl)amino)pyrimidine-5-carboxamide]

SYK Tm-Shift [2, 3]: 1.6 °C
Compound: CN(C)C(=O)c1cccc(Nc2nc(N3CCC[C@H](N)C3)ncc2C(N)=O)c1 [Example 23, (S)-2-(3-aminopiperidin-1-yl)-4-((3-(dimethylcarbamoyl)phenyl)amino)pyrimidine-5-carboxamide]

SYK Tm-Shift [2, 3]: 1.4 °C
Compound: NC(=O)c1cnc(N2CCC[C@H](N)C2)nc1Nc1cccc(C(=O)N2CCOCC2)c1 [Example 24, (S)-2-(3-aminopiperidin-1-yl)-4-((3-(morpholine-4-carbonyl)phenyl)amino)pyrimidine-5-carboxamide]

SYK Tm-Shift [2, 3]: 1.8 °C
Compound: NC(=O)c1cnc(N2CCC[C@H](N)C2)nc1Nc1cccc(C(=O)N2CCCCC2)c1 [Example 26, (S)-2-(3-aminopiperidin-1-yl)-4-((3-(piperidine-1-carbonyl)phenyl)amino)pyrimidine-5-carboxamide]

SYK Tm-Shift [2, 3]: 3.1 °C
Compound: C[C@@H]1CN(C(=O)c2cccc(Nc3nc(N4CCC[C@H](N)C4)ncc3C(N)=O)c2)C[C@H](C)O1 [Example 39, 2-((S)-3-aminopiperidin-1-yl)-4-((3-((2R,6S)-2,6-dimethylmorpholine-4-carbonyl)phenyl)amino)pyrimidine-5-carboxamide]

SYK Tm-Shift [2, 3]: 0.5 °C
Compound: CN(C)C(=O)c1cc(Nc2nc(N3CCC[C@H](N)C3)ncc2C(N)=O)cc(C(C)(C)C#N)c1 [Example 46, (S)-2-(3-aminopiperidin-1-yl)-4-((3-(2-cyanopropan-2-yl)-5-(dimethylcarbamoyl)phenyl)amino)pyrimidine-5-carboxamide]

SYK Tm-Shift [2, 3]: 0.7 °C
Compound: CC(C)(C#N)c1cc(Nc2nc(N3CCC[C@H](N)C3)ncc2C(N)=O)cc(C(=O)N2CCCC2)c1 [Example 47, (S)-2-(3-aminopiperidin-1-yl)-4-((3-(2-cyanopropan-2-yl)-5-(pyrrolidine-1-carbonyl)phenyl)amino)pyrimidine-5-carboxamide]

SYK Tm-Shift [2, 3]: 0.3 °C
Compound: CC1(C)C(=O)Nc2ccc(Nc3nc(N4CCC[C@H](N)C4)ncc3C(N)=O)cc21 [Example 65, (S)-2-(3-aminopiperidin-1-yl)-4-((3,3-dimethyl-2-oxoindolin-5-yl)amino)pyrimidine-5-carboxamide]

SYK Tm-Shift [2, 3]: 3.4 °C
Compound: CC(C)(O)c1cc(Nc2nc(N3CCC[C@H](N)C3)ncc2C(N)=O)cc(C(F)(F)F)c1 [Example 89, (S)-2-(3-aminopiperidin-1-yl)-4-((3-(2-hydroxypropan-2-yl)-5-(trifluoromethyl)phenyl)amino)pyrimidine-5-carboxamide]

SYK Tm-Shift [2, 3]: 0.9 °C
Compound: CC(C)(O)c1cc(Nc2nc(N3CCC[C@H](N)C3)ncc2C(N)=O)cc(C(C)(C)O)c1 [Example 90, (S)-2-(3-aminopiperidin-1-yl)-4-((3,5-bis(2-hydroxypropan-2-yl)phenyl)amino) pyrimidi-ne-5-carboxamide]
